Structures can show the parent of a compound that is named as a salt. Blank lines part the entries; values can stand above or below the compound they belong to.
Assays:
obese DIO mice = assay: Therapeutic weight loss effect in HFD feeding induced obese mouse model (DIO mice); format: in vivo; details: day 14
Experimental: To determine the therapeutic weight loss effects and improvement of metabolic parameters, the compound from the invention is tested in a HFD feeding induced obese mouse model (DIO mice). In this model, C57/B16J male mouse is fed with the 60% HFD (D12492i, Research Diets) for 16˜28 weeks to establish obesity with body weight reaching around 50 g. The mice will gradually increase their body weight to about 50 g and maintain that weight in this obese state.

[1] = molecular target: Human DPP-4 ((39-766)-His) (Homo sapiens (Human), UniProt P27487); assay: Enzymatic activity assay of DPP-4 (Gly-Pro-AMC fluorescence); format: biochemical; details: (SD, n), read-out: hDPP-4 IC50
Chain of Human DPP-4 ((39-766)-His) (P27487 39-766): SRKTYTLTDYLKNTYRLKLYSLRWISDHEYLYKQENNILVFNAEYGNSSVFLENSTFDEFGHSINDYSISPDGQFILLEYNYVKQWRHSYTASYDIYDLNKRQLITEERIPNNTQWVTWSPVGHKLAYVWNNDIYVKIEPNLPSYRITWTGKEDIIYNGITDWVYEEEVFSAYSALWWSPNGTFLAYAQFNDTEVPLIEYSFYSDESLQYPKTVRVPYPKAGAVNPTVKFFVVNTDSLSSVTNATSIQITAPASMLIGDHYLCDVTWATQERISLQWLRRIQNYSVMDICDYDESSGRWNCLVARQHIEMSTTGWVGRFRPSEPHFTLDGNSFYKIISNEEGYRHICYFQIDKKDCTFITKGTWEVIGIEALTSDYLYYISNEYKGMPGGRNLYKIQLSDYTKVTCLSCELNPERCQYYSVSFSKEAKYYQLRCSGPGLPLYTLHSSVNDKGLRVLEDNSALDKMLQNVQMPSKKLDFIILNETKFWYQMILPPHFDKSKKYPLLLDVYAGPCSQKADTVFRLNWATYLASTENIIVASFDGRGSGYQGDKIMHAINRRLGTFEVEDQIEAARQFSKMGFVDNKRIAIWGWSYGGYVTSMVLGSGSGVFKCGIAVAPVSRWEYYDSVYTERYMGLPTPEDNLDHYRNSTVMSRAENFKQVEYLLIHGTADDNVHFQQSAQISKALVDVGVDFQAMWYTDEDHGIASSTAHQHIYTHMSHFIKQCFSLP
Experimental: (§1) Inhibition of the catalytic activity of human and mouse DPP-4 by the compound in the present invention is monitored by the formation of product fluorescence AMC from substrate Gly-Pro-AMC (Sigma, G2761) on an Envision plate reader. […] The IC50 value is calculated typically from a 10-point dose titration curve using the 4-parameter logistic equation.

[2] = molecular target: mouse DPP-4 ((29-760)-His) (Mus musculus (Mouse), UniProt P28843); assay: as above; format: biochemical; details: (SD, n), read-out: mDPP-4 IC50
Chain of mouse DPP-4 ((29-760)-His) (P28843 29-760): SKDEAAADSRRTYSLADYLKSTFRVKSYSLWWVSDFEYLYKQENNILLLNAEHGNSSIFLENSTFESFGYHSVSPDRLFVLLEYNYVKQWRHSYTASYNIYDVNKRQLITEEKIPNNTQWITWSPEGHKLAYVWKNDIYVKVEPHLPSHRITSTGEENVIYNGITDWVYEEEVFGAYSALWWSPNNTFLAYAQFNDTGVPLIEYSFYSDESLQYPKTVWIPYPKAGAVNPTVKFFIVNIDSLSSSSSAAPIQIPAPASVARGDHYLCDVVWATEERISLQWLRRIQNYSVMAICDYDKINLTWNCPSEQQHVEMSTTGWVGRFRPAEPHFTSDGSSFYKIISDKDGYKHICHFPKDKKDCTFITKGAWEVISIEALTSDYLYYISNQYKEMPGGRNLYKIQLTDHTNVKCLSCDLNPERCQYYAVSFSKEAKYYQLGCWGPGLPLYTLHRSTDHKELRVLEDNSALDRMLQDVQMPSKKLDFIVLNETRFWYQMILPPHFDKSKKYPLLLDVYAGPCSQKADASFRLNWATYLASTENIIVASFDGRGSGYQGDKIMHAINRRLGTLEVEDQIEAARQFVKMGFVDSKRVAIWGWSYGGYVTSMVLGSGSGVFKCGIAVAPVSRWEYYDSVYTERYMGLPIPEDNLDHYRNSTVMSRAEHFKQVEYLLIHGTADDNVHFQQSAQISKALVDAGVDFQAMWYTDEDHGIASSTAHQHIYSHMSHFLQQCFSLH
Experimental: as §1

Structure (SMILES): Cl.N[C@H]1C[C@@H](N2Cc3ccc(N4CCC(O)(C(=O)NCc5cc(F)cc(F)c5F)C4=O)cc3C2)CO[C@@H]1c1cc(F)ccc1F (single isomer, unassigned; isomer 1) [Example 1]
weight loss compared to the vehicle group (obese DIO mice; oral 20 mg/kg once daily): about 8.9%

Structure (SMILES): Cl.N[C@H]1C[C@@H](n2cc(N3CCC(O)(C(=O)NCc4cc(Cl)cc(Cl)c4F)C3=O)cn2)CO[C@@H]1c1cc(F)ccc1F (single isomer, unassigned; isomer 1) [Example 7]
weight loss compared to the vehicle group (obese DIO mice; oral 40 mg/kg once daily): about 4.8%

IC50 [1]: < 1.52 nM
IC50 [2]: < 1.52 nM
Structure (SMILES): N[C@H]1C[C@@H](n2ncc(N3CCC(O)(C(=O)NCc4cc(Cl)cc(Cl)c4F)C3=O)n2)CO[C@@H]1c1cc(F)ccc1F (single isomer, unassigned; isomer 1) [Example 11, hydrochloride]
